These results are taken from patent publication US20220411388A1, “SUBSTITUTED IMIDAZOLE CARBOXAMIDES AND THEIR USE IN THE TREATMENT OF MEDICAL DISORDERS” (Bial - R&D Investments, S.A., priority 2019, published 2022).

Values after ≈ are worked out from the molar mass of the structure shown. Like-named read-outs stand apart in the source and are kept apart here. Bounds are passed on as bounds.

One series addresses T1, acid ceramidase (hACR) (Homo sapiens, UniProt Q13510).
T1 construct: expressed in transfected cells
T1 sequence (Q13510 22-395): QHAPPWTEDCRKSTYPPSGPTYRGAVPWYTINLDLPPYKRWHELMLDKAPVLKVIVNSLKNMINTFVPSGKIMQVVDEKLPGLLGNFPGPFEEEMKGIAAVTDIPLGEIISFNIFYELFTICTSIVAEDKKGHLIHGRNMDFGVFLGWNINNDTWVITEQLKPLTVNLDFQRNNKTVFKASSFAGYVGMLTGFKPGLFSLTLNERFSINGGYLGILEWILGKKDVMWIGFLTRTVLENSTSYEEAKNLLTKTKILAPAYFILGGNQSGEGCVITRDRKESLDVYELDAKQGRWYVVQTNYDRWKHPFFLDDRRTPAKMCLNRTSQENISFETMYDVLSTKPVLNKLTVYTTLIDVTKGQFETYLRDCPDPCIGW
Put plainly: Acid ceramidase inhibition, biochemical fluorescent assay with cell lysates overexpressing acid ceramidase (substrate Rbm14-12). The conditions noted are these: cell lysate, 1 hr preincubation at RT, pH 4.5, Rbm14-12 6.3 μM. The gist of the method:
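Enzyme source was lysate from cells overexpressing acid ceramidase, 10 µg protein per reaction. Compounds were preincubated 1 h at RT in 25 mM NaAc, 100 mM NaCl, pH 4.5.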

Series [1] is described as follows: Compound solubility in water. It is filed as physicochemical.

Regarding `COc1nc(C(C)(C)C)cn1C(=O)NC(C)CC(C)C` (stereo not drawn) [Example 58, 4-(tert-Butyl)-2-methoxy-N-(4-methylpentan-2-yl)-1H-imidazole-1-carboxamide], the IC50 (in general, the concentration that inhibits the measured activity by half) on acid ceramidase (hACR) (read-out: IC50 hACR) was in the range of 200 to 1000 nM. In series [1], the solubility (as a rule, the dissolved amount per volume that the medium holds) came out at 15.1 µg/mL (≈ 53.7 µM).
Molecule `CCC(C)(C)c1cn(C(=O)NCCC(C)C)c(OC)n1` [Example 100, N-iso-Pentyl-2-methoxy-4-(tert-pentyl)-1H-imidazole-1-carboxamide] had a 50% inhibitory concentration (IC50) on acid ceramidase (hACR) (IC50 hACR) of 200 to 1000 nM. The molecule further showed a solubility in series [1] of 14 µg/mL (≈ 49.8 µM).
With `COc1nc(C(C)(C)C)cn1C(=O)NCC#CC(C)C` [Example 98, 4-(tert-Butyl)-2-methoxy-N-(4-methylpent-2-yn-1-yl)-1H-imidazole-1-carboxamide], the IC50 at acid ceramidase (hACR) (read-out: IC50 hACR) was under 200 nM. The solubility in series [1] came to 5 µg/mL (≈ 18 µM).
Consider `Cc1cn(C(=O)NC2CCC(F)(F)CC2)c(Oc2ccccc2)n1` [Example 172, N-(4,4-Difluorocyclohexyl)-4-methyl-2-phenoxy-1H-imidazole-1-carboxamide], for which, at acid ceramidase (hACR) (read-out: IC50 hACR), the half-inhibitory concentration (IC50) was under 200 nM. In addition, the concentration in solution in series [1] (solubility) came to 4 µg/mL (≈ 11.9 µM).
Consider `O=C(NCCC1CC1)n1cnc(-n2ccc(F)n2)c1` [Example 74, N-(2-Cyclopropylethyl)-4-(3-fluoro-1H-pyrazol-1-yl)-1H-imidazole-1-carboxamide], for which the IC50 on acid ceramidase (hACR) (read-out: IC50 hACR) is over 1000 nM. The molecule further yielded a solubility in series [1] of 34 µg/mL (≈ 129 µM).
Turning to `COc1nc(C)cn1C(=O)NCCCc1ccccc1` [Example 141, 2-Methoxy-4-methyl-N-(3-phenylpropyl)-1H-imidazole-1-carboxamide], the half-inhibitory concentration (IC50) on acid ceramidase (hACR) (read-out: IC50 hACR) is under 200 nM. Moreover, the concentration in solution in series [1] (solubility) was 24 µg/mL (≈ 87.8 µM).
For `CC(C)CCNC(=O)n1cnc(-c2ccccc2C2CCN(C)CC2)c1` [Example 38, N-iso-Pentyl-4-(2-(1-methylpiperidin-4-yl)phenyl)-1H-imidazole-1-carboxamide] the same measures were 200 to 1000 nM and 35.3 µg/mL (≈ 99.6 µM).
Consider `COc1nc(C(C)(C)C)cn1C(=O)NC1CCOCC1` [Example 114, 4-(tert-Butyl)-2-methoxy-N-(tetrahydro-2H-pyran-4-yl)-1H-imidazole-1-carboxamide], for which, on acid ceramidase (hACR) (read-out: IC50 hACR), the IC50 was 200 to 1000 nM. In series [1], this molecule came in with a solubility of 29 µg/mL (≈ 103 µM).
Turning to `COc1nc(C(C)(C)C)cn1C(=O)NCCC(C)C` [Example 57, 4-(tert-Butyl)-N-isopentyl-2-methoxy-1H-imidazole-1-carboxamide], at acid ceramidase (hACR) (read-out: IC50 hACR), the IC50 is 200 to 1000 nM. This molecule also had a solubility in series [1] of 13.3 µg/mL (≈ 49.7 µM).
For `O=C(NCCc1ccccc1)n1cnc(-c2ccccn2)c1` [Example 4, N-Phenethyl-4-(pyridin-2-yl)-1H-imidazole-1-carboxamide] the same measures were 200 to 1000 nM and 21.1 µg/mL (≈ 72.2 µM).
Turning to `COc1nc(C)cn1C(=O)NCCCCC1(C(F)(F)F)CC1` [Example 155, 2-Methoxy-4-methyl-N-(4-(1-(trifluoromethyl)-cyclopropyl)butyl)-1H-imidazole-1-carboxamide], the IC50 at acid ceramidase (hACR) (read-out: IC50 hACR) is under 200 nM. In addition, the solubility in series [1] turned out to be 22 µg/mL (≈ 68.9 µM).
For `COc1nc(C)cn1C(=O)NCCCC1(C(F)(F)F)CC1` [Example 145, 2-Methoxy-4-methyl-N-(3-(1-(trifluoromethyl)cyclopropyl)propyl)-1H-imidazole-1-carboxamide] the same measures were under 200 nM and 28 µg/mL (≈ 91.7 µM).
For `CC(C)CCCNC(=O)n1cnc(-c2cccnc2)c1` [Example 33] the same measures were 200 to 1000 nM and 18.9 µg/mL (≈ 69.4 µM).
For `COc1nc(-c2cccnn2)cn1C(=O)NCCC(C)C` [Example 83, N-iso-Pentyl-2-methoxy-4-(pyridazin-3-yl)-1H-imidazole-1-carboxamide], the IC50 on acid ceramidase (hACR) (read-out: IC50 hACR) fell in the range of 200 to 1000 nM. In series [1], this molecule returned a solubility of 33 µg/mL (≈ 114 µM).
Taken in the same sequence, the figures for `CN1CCC(Oc2nc(Cl)cn2C(=O)NCCCC(F)(F)F)CC1` [Example 188, 4-Chloro-2-((1-methylpiperidin-4-yl)oxy)-N-(4,4,4-trifluorobutyl)-1H-imidazole-1-carboxamide] were 200 to 1000 nM and 36 µg/mL (≈ 97.6 µM).
